# Measurements as given in patent US20070149588A1, “6-(2,3,6-Trifluorophenyl)triazolopyrimidines, their preparation and their use for controlling harmful fungi, and compositions comprising these compounds” (priority 2003, published 2007).
# System: Botrytis cinerea
# Test: Activity against gray mold on bell-pepper leaves caused by Botrytis cinerea, protective application
# Format: in vivo
# Settings: 250 ppm, protective spray on bell-pepper seedlings cv. Neusiedler Ideal Elite, inoculated next day, assessed visually after 5 days; untreated plants 90% infected
# Protocol: The active compounds were prepared as a stock solution with 25 mg of active compound which was made up to 10 ml using a mixture of acetone and/or DMSO and the emulsifier Uniperol® EL (wetting agent having emulsifying and dispersing action based on ethoxylated alkylphenols) in a volume ratio of solvent/emulsifier of 99 to 1. The mixture was then made up with water to 100 ml. This stock solution was diluted with the solvent/emulsifier/water mixture described to the concentration of active compound stated below. Bell-pepper seedlings of the cultivar “Neusiedler Ideal Elite” were, after 2 to 3 leaves were well developed, sprayed to runoff point with an aqueous suspension having the concentration of active compound stated below. The next day, the treated plants inoculated with a spore suspension of Botrytis cinerea, which contained 1.7×10^6 spores/ml in a 2% aqueous biomalt solution. The test plants were then placed in a dark climatized chamber at 22 to 24° C. and high atmospheric humidity. After 5 days, the extent of the fungal infection on the leaves could be determined visually in %.
row,SMILES,fungal infection on the leaves
1,"Cc1nc2ncnn2c(N2CCCCC2C)c1-c1c(F)ccc(F)c1F (stereo not drawn) [I-3, 5-methyl-6-(2,3,6-trifluorophenyl)-7-(2-methylpiperidinyl)-1,2,4-triazolo[1,5a]pyrimidine]",no infection
2,"CC1CCCCN1c1c(-c2c(F)ccc(F)c2F)c(C#N)nc2ncnn12 (stereo not drawn) [I-1, 5-cyano-6-(2,3,6-trifluorophenyl)-7-(2-methylpiperidinyl)-1,2,4-triazolo[1,5a]pyrimidine]",no infection
3,"COc1nc2ncnn2c(NC2CCCC2)c1-c1c(F)ccc(F)c1F [I-2, 5-methoxy-6-(2,3,6-trifluorophenyl)-7-cyclopentylamino-1,2,4-triazolo[1,5a]pyrimidine]",no infection
